Key:
CT26 cells [1] = experiment: Microscope observation of cell status after 48 hours of drug action; type: cell-based, mouse; details: IN10018 5 µM; for cell status observed under a microscope: Etoposide 20 µM, Fig. 6; for cell status observed under a microscope (cell death / cell viability): Teniposide 4.8 µM
Method: CT26 cells (Institute of Cell Biology, Chinese Academy of Sciences) were cultured with RPMI-1640 (Shanghai Basalmedia, catalog number: L210KJ, batch number: F210916) + 10% FBS (Gibco, catalog number: 10099-141c, batch number: 2158737cp), and passaged twice. When the cells were in good condition, they were placed in a 24-well plate. After 24 hours of cell spreading, four groups were set up. The first group was the control group, in which culture medium was added; the second group was IN10018 at a concentration of 5µM; the third group was Etoposide (source: MCE, classification number: 33419-42-0, batch number: 113741) with a concentration of 20 µM; and the fourth group was a combination group of IN10018 (5 µM) and Etoposide (20 µM). The drugs were mixed and cultured in a 5 % CO2 incubator at 37°C for 48 hours.
After 48 hours of drug action, the cells were observed and photographed under a microscope. The photos were saved. Then the cells were collected for flow cytometry, and the cells were washed twice with flow buffer (PBS + 2% FBS). 0.5 µl of AF647 anti-Calreticulin antibody (abcam, catalog number: ab196159, batch number: CR33676773) was added to each well, and fully mixed. The cells were incubated at 4 °C for 20 minutes in the dark. After 20 minutes, the cells were washed twice with flow buffer (PBS + 2% FBS). Cell apoptosis detection kit (Beyotime, catalog number: CL062L, batch number: 021921210811) was used. 195 µl of Annexin-V-FITC binding solution was added, and the cells were gently mixed. 5 µl of annexin-V-FITC antibody was added, and the mixture was gently mixed. 10 µl of PI dye was added and gently mixed. The mixture was incubated at room temperature in the dark for 15 minutes, and then analyzed on a flow cytometer.
After 48 hours of drug action, the cells were photographed using a microscope, then trypsinized and collected for flow cytometry staining.

[2] = test system: MC38 mouse colorectal cancer cells; experiment: In vivo antitumor efficacy in subcutaneous allograft tumor model; set-up: species or system C57BL/6 mice
Method: Table 12: Animal groups and dosing regimens for in vivo efficacy assays
(§1) • 1. N: number of mice in each group; • 2. Dosing volume: 10 mL/kg based on the mouse body weight. If the body weight dropped by more than 15%, the administration of the animals would be stopped; When the body weight recovered to 90%, the administration would be resumed. • 3. The Etoposide dose was increased to 6 mg/kg on the 6th day after grouping and dosing;
Colorectal cancer cells MC38 (from Nanjing Cobioer Biotechnology Co., Ltd., article number: CBP60825) were maintained and passaged by InxMed (Nanjing) Co., Ltd. Cells were cultured in monolayer in vitro under the following conditions: DMEM medium with 10% fetal bovine serum, in a 37°C, 5% CO2 incubator. Cells were routinely digested and passaged two to three times a week using trypsin-EDTA. When the cells were in the exponential growth phase and the adherent confluence reached 80%-90%, the cells were harvested, counted, and then inoculated.
0.1 mL of cell suspension containing 2×10^5 cells was subcutaneously inoculated on the right back of each mouse. When the tumor volume reached about 50 mm^3 (9th day after cell inoculation), the mice were randomly divided into groups and administered according to the tumor volume. Table 13: Test substance and control solvent preparation
The assay index was to examine whether the tumor growth was inhibited, delayed, or cured. Tumor diameters were measured three times a week using calipers. The tumor volume was calculated using the formula: V = 0.5 × a × b^2, where a and b represent the long and short diameters of the tumor, respectively.
The anti-tumor efficacy of the compound was evaluated by TGI (%), which reflected the tumor growth inhibition rate. Based on the tumor volume on the first day after grouping, the tumor growth inhibition rate TGI (%) was calculated according to the following formula: TGI (%) = [1 - (average tumor volume of an administration group - average tumor volume of the administration group at the beginning of treatment) / (average tumor volume of the solvent control group - average tumor volume of the solvent control group at the beginning of treatment)] × 100%.
Statistical analysis was based on tumor volume at the end of the assay using Prism Graphpad software. Comparisons between multiple groups were analyzed using Two-way ANOVA and Fisher's LSD test. A P-value of less than 0.05 was considered statistically significant.
After cell inoculation, tumor growth was observed every day. On the 9th day after inoculation, mice were grouped based on tumor volume. The average tumor volume at enrollment was approximately 50 mm^3.

CT26 cells [3] = experiment: CCK-8 cell proliferation inhibition; type: cell-based; details: Mus musculus, single drug, 72 hours, CCK8, OD450
Method: CT26 cells were cultured with RPMI-1640 (Shanghai Basalmedia, catalog number: L210KJ, batch number: F210916) + 10% FBS (Gibco, catalog number: 10099-141c, batch number: 2158737cp), and passaged twice. When the cells were in good condition, they were placed in a 96-well plate, 3000 cells/well. […] 10 drug concentrations were set. The first concentration was 30 µM, which was serially diluted 5-fold, and the last one was the control, with the drug concentration of 0. Each drug concentration was run in triplicate. At the same time, another group of cells was established with the same drug concentration as that in the above method.
10 µl of CCK8 detection reagent (Cellorlab, classification number: CX001M, batch number: 2571100) was added to each well, and the plate was incubated in a 5% CO2 incubator at 37 °C for 2-4 hours. Then the plate was read using microplate reader OD450 (chemiluminescence method). […]
CT26 cells were digested with trypsin, and then the cells were collected and counted. […]
After 72 hours of drug action, 10 µL of CCK-8 detection reagent was added to each well of the cell plate using a multi-channel pipette, and then the cell plate was incubated in a 37 °C, 5% CO2 incubator for another 4 hours. Finally, the absorbance of each well at 450 nm was measured using an ELISA reader. […]

MDA-MB-231 cells [4] = experiment: Calreticulin release and exposure by flow cytometry after FAK siRNA silencing plus topoisomerase inhibitor; type: cell-based; details: FAK siRNA 50 nM for 24 hours, then 2 µM drug for 48 hours; compared with control siRNA; Fig. 2 / Fig. 4
Method: The siRNA technology was used in the in vitro assay to reduce the expression level of FAK, and combined with Etoposide for 48 hours. Flow cytometry was used to detect the expression of Calreticulin, the main target of ICD.
MDA-MB-231 cells were transfected with control siRNA or FAK siRNA at a final concentration of 50 nM, respectively. After the transfection for 24 hours, the cells were treated with 2 µM of Etoposide for 48 hours. The cells were fluorescent stained with Calreticulin antibody, and the staining results were analyzed by flow cytometry.
The siRNA technology was used in the in vitro assay to reduce the expression level of FAK, and combined with Teniposide for 48 hours. Flow cytometry was used to detect the expression of Calreticulin, the main target of ICD.
MDA-MB-231 cells were transfected with control siRNA or FAK siRNA at a final concentration of 50 nM, respectively. After the transfection for 24 hours, the cells were treated with 2 µM Teniposide for 48 hours. The cells were fluorescent stained with Calreticulin antibody, and the staining results were analyzed by flow cytometry.

[5] = day 17 after group administration, 6 mice per group; deaths due to tumor rupture
Method: as §1
The formulation and any modifications of this assay protocol had been assessed and approved by the IACUC of ArrayBridge. The use and welfare of assay animals were carried out in accordance with AAALAC regulations. The health status and mortality of animals were monitored daily, with routine checks including observation of tumor growth and the impact of drug treatment on the animals' daily behavior, such as activity, food and water intake (estimated by visual inspection), changes in body weight, physical signs, or any other abnormalities. The number of animal deaths and side effects in each group were recorded based on the number of animals in each group.
The assay was carried out according to the dosing regimen. During the assay, the animals' activities such as eating and drinking were observed every day, and the body weight of the animals was recorded three times a week. […]

MDA-MB-231 cells [6] = experiment: Apoptosis by Annexin V flow cytometry after FAK siRNA silencing plus topoisomerase inhibitor; type: cell-based; details: FAK siRNA 50 nM for 24 hours, then 2 µM drug for 48 hours; FAK silencing group compared with control siRNA group; Fig. 1 / Fig. 3
Method: The siRNA technology was used in the in vitro assay to reduce the expression level of FAK, and combined with Etoposide for 48 hours; flow cytometry was used to detect apoptosis in control and FAK silenced cells.
Assay antibodies: recombinant Alexa Fluor® 647 fluorescent Anti-Calreticulin antibody (Abcam, ab196159), Annexin V apoptosis detection kit (Invitrogen, A35110).
MDA-MB-231 cells were transfected with control siRNA or FAK siRNA at a final concentration of 50 nM, respectively. After the transfection for 24 hours, the cells were treated with 2 µM of Etoposide for 48 hours. The cells were stained using Annexin V kit and detected by flow cytometry. The early and late apoptotic values were counted, compared with those of the DMSO control group, and plotted using Graphpad 8.0.
The siRNA technology was used in the in vitro assays to reduce the expression level of FAK, and combined with Teniposide for 48 hours; flow cytometry was used to detect apoptosis in control and FAK silenced cells. […]
MDA-MB-231 cells were transfected with control siRNA or FAK siRNA at a final concentration of 50 nM, respectively. […] The cells were stained using Annexin V kit and detected by flow cytometry. The early and late apoptosis values were counted, compared with those of the DMSO control group, and plotted using Graphpad 8.0.

Row | SMILES | cell status observed under a microscope (CT26 cells [1]) | cell status observed under a microscope (cell death / cell viability) (CT26 cells [1]) | Tumor volume on day 17 ([2]; 17th day after group administration, Etoposide 3 mg/kg PO QD (6 mg/kg from the 6th day), IN10018 25 mg/kg PO QD, PD-L1 antibody 5 mg/kg i.p. BIW, mean ± SD) [mm^3] | Tumor volume on day 0 ([2]; baseline on the day of grouping, mean ± SD, 6 mice per group) [mm^3] | TGI ([2]; day 17 vs. control group, Etoposide 3 mg/kg PO QD (6 mg/kg from the 6th day), IN10018 25 mg/kg PO QD, PD-L1 antibody 5 mg/kg i.p. BIW) [%] | inhibitory effect on tumor growth ([2]; in words, compared with the blank control group, whole dosing cycle, Fig. 11) | IC50 (CT26 cells [3]) [µM] | release and exposure of Calreticulin (MDA-MB-231 cells [4]) | Animal Survival [5] | apoptosis (early and late apoptotic values) (MDA-MB-231 cells [6])
1 | COc1cc([C@@H]2c3cc4c(cc3[C@@H](O[C@@H]3O[C@@H]5CO[C@@H](C)O[C@H]5[C@H](O)[C@H]3O)[C@H]3COC(=O)[C@H]23)OCO4)cc(OC)c1O [Etoposide] | poor | obvious | 2420.2±1377.3 | 48.2 ± 10.2 | 9.5 | no inhibitory effect | 24.4 | significantly enhanced | 5/6 | significantly enhanced
2 | COc1cc([C@@H]2c3cc4c(cc3[C@@H](O[C@@H]3O[C@@H]5CO[C@@H](c6cccs6)O[C@H]5[C@H](O)[C@H]3O)[C@H]3COC(=O)[C@H]23)OCO4)cc(OC)c1O [Teniposide] |  |  |  |  |  |  | 0.818 | significantly enhanced |  | significantly enhanced
3 | COc1cc(C(=O)NC2CCN(C)CC2)c(F)cc1Nc1ncc(C(F)(F)F)c(Oc2cccc3c2C(=O)N(C)C3)n1 [IN10018] | good | better |  |  |  |  |  |  |  | 

Source: patent EP4588485A1, “PHARMACEUTICAL COMBINATION OF FAK INHIBITOR AND TOPOISOMERASE INHIBITOR AND USE THEREOF” (Inxmed (Nanjing) Co., Ltd., priority 2022, dated 2024)
